Results published in patent publication US8614327B2 (Vertex Pharmaceuticals Incorporated, priority 2004, dated 2013).
pEC50: −log10 of the molar value.

Target: T1, ΔF508-CFTR (Homo sapiens, UniProt P13569, DEL508-508)
T1 construct: expressed in transfected cells
Assay: Membrane potential optical (FRET/VIPR) assay, identification of potentiator compounds
Assay type: cell-based
Details: Table 3, assay not given; for % Activity: relative efficacy
Method in brief: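 Double-addition potentiator screen: compound delivered in gluconate-substituted Cl^--free medium, membrane potential followed via CC2-DMPE/DiSBAC2(3) FRET on VIPR. Cells were ΔF508-CFTR-expressing NIH3T3 mouse fibroblasts, held 2 h at 37° C. then 24 h at 27° C. before assay.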

T1 sequence (P13569 with tags, fused parts or gaps DEL508-508): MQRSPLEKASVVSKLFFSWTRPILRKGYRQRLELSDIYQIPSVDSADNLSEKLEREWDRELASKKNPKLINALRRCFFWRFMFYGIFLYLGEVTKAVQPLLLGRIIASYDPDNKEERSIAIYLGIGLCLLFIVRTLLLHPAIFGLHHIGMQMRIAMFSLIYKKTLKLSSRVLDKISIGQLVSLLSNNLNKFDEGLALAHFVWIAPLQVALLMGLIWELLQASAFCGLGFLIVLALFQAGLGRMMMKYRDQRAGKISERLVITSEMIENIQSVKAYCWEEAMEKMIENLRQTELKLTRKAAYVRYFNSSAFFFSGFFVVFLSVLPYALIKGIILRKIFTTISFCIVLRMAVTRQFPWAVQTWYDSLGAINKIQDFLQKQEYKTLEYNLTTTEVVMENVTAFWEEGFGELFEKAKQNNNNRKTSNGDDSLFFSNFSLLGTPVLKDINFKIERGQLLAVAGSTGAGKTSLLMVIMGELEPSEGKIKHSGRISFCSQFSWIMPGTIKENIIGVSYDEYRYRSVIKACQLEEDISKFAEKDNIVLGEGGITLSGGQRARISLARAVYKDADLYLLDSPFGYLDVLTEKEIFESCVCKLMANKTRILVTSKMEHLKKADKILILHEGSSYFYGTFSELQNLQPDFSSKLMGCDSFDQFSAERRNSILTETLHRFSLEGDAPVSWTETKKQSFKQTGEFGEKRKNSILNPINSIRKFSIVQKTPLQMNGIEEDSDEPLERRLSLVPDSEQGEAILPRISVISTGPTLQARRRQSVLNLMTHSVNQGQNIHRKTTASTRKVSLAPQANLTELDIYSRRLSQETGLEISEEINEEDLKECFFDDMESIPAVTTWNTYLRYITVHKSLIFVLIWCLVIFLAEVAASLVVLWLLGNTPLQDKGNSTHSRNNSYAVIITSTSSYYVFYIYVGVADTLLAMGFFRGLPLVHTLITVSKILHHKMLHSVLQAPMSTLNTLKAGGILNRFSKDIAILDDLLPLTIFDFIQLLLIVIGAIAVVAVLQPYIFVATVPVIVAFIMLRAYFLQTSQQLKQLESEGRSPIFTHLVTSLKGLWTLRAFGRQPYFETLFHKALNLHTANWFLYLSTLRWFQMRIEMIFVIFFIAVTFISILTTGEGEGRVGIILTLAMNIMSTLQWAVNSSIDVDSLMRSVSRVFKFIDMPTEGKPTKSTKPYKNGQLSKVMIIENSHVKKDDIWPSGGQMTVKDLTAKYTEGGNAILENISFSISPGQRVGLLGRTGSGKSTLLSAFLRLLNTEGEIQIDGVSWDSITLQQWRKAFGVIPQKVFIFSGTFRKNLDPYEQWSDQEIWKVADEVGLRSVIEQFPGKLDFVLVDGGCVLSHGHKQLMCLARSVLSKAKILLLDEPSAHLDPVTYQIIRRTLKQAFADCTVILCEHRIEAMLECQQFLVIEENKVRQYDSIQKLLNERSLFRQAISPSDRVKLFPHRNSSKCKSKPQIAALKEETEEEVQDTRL

pEC50	% Activity	SMILES
> 5.00	+++ (>100%)	COc1cccc(-c2ccccc2NC(=O)c2c[nH]c3ccccc3c2=O)c1 [Compound 283, N-[2-(3-methoxyphenyl)phenyl]-4-oxo-1H-quinoline-3-carboxamide]
> 5.00	++ (between 25% to 100%)	O=C(Nc1ccccc1-c1cccc(F)c1F)c1c[nH]c2ccccc2c1=O [Compound 285, N-[2-(2,3-difluorophenyl)phenyl]-4-oxo-1H-quinoline-3-carboxamide]
> 5.00	+++ (>100%)	O=C(Nc1cccc2c1CCCC2)c1c[nH]c2ccccc2c1=O [Compound 286, 1,4-dihydro-N-(1,2,3,4-tetrahydronaphthalen-5-yl)-4-oxoquinoline-3-carboxamide]
> 5.00	++ (between 25% to 100%)	CC1(c2cc(F)c(NC(=O)c3c[nH]c4cccc(O)c4c3=O)cc2O)CCCCC1 [Compound 287, N-[2-fluoro-5-hydroxy-4-(1-methylcyclohexyl)-phenyl]-5-hydroxy-4-oxo-1H-quinoline-3-carboxamide]
> 5.00	++ (between 25% to 100%)	COC(=O)Oc1c(NC(=O)c2c[nH]c3ccccc3c2=O)cc(F)cc1C(C)(C)C [Compound 288, N-(5-fluoro-2-methoxycarbonyloxy-3-tert-butyl-phenyl)-4-oxo-1H-quinoline-3-carboxamide]
> 5.00	++ (between 25% to 100%)	Cc1ccc(NC(=O)c2c[nH]c3ccccc3c2=O)c(F)c1 [Compound 289, N-(2-fluoro-4-methyl-phenyl)-4-oxo-1H-quinoline-3-carboxamide]
> 5.00	++ (between 25% to 100%)	CC(C)c1cccc(-c2ccccc2NC(=O)c2c[nH]c3ccccc3c2=O)c1 [Compound 290, N-[2-(3-isopropylphenyl)phenyl]-4-oxo-1H-quinoline-3-carboxamide]
–	++ (between 25% to 100%)	CC(C)(C)c1cc(Cl)c(NC(=O)c2c[nH]c3ccccc3c2=O)cc1O [Compound 291, N-(2-chloro-5-hydroxy-4-tert-butyl-phenyl)-4-oxo-1H-quinoline-3-carboxamide]
> 5.00	++ (between 25% to 100%)	O=C(Nc1cc(Cl)ccc1Oc1ccccc1)c1c[nH]c2ccccc2c1=O [Compound 292, N-(5-chloro-2-phenoxy-phenyl)-4-oxo-1H-quinoline-3-carboxamide]
4.60 to 5.00	+++ (>100%)	O=C(Nc1ccccc1-n1cccc1)c1c[nH]c2ccccc2c1=O [Compound 293, 4-oxo-N-[2-(1H-pyrrol-1-yl)phenyl]-1H-quinoline-3-carboxamide]
4.60 to 5.00	++ (between 25% to 100%)	O=C(Nc1ccc2[nH]ccc2c1)c1c[nH]c2ccccc2c1=O [Compound 294, N-(1H-indol-5-yl)-4-oxo-1H-quinoline-3-carboxamide]
> 5.00	++ (between 25% to 100%)	O=C(Nc1ccccc1N1CCCC1)c1c[nH]c2ccccc2c1=O [Compound 295, 4-oxo-N-(2-pyrrolidin-1-ylphenyl)-1H-quinoline-3-carboxamide]
4.60 to 5.00	++ (between 25% to 100%)	COc1nc2ccccc2c(OC)c1C(=O)Nc1ccccc1C(C)(C)C [Compound 296, 2,4-dimethoxy-N-(2-tert-butylphenyl)-quinoline-3-carboxamide]
> 5.00	++ (between 25% to 100%)	Cc1ccc(C)n1-c1ccccc1NC(=O)c1c[nH]c2ccccc2c1=O [Compound 297, N-[2-(2,5-dimethyl-1H-pyrrol-1-yl)phenyl]-4-oxo-1H-quinoline-3-carboxamide]
–	++ (between 25% to 100%)	CCOC(=O)Nc1cc(NC(=O)c2c[nH]c3ccccc3c2=O)ccc1CC [Compound 298, [2-ethyl-5-[(4-oxo-1H-quinolin-3-yl)carbonylamino]phenyl]aminoformic acid ethyl ester]
> 5.00	++ (between 25% to 100%)	O=C(Nc1ccc2c(c1)NCCC2)c1c[nH]c2ccccc2c1=O [Compound 299, 4-Oxo-N-(1,2,3,4-tetrahydroquinolin-7-yl)-1H-quinoline-3-carboxamide]
> 5.00	++ (between 25% to 100%)	CC1(C)CCNc2cc(NC(=O)c3c[nH]c4ccccc4c3=O)ccc21 [Compound 300, N-(4,4-Dimethyl-1,2,3,4-tetrahydroquinolin-7-yl)-4-oxo-1H-quinoline-3-carboxamide]
4.22 to 4.60	+ (<25%)	Cn1cnnc1-c1ccc(NC(=O)c2c[nH]c3ccccc3c2=O)cc1 [Compound 301, N-[4-(4-methyl-4H-1,2,4-triazol-3-yl)phenyl]-4-oxo-1H-quinoline-3-carboxamide]

pEC50	% Activity	SMILES
4.60 to 5.00	++ (between 25% to 100%)	O=C(Nc1ccccc1-c1ccc(CO)cc1)c1c[nH]c2ccccc2c1=O [Compound 302, N-[2-[4-(hydroxymethyl)phenyl]phenyl]-4-oxo-1H-quinoline-3-carboxamide]
4.60 to 5.00	++ (between 25% to 100%)	CC(=O)N1CCc2ccc(NC(=O)c3c[nH]c4ccccc4c3=O)cc2C1 [Compound 303, N-(2-acetyl-1,2,3,4-tetrahydroisoquinolin-7-yl)-4-oxo-1H-quinoline-3-carboxamide]
> 5.00	++ (between 25% to 100%)	CCOc1ccccc1-c1ccc(CNC(=O)OC(C)(C)C)cc1NC(=O)c1c[nH]c2ccccc2c1=O [Compound 304, {2′-Ethoxy-2-[(4-oxo-1,4-dihydroquinoline-3-carbonyl)-amino]-biphenyl-4-ylmethyl}-carbamic acid tert-butyl ester]
> 5.00	+++ (>100%)	COc1ccc(-c2ccccc2NC(=O)c2c[nH]c3ccccc3c2=O)cc1 [Compound 305, N-[2-(4-methoxyphenyl)phenyl]-4-oxo-1H-quinoline-3-carboxamide]
> 5.00	+++ (>100%)	CCOc1cccc(-c2ccccc2NC(=O)c2c[nH]c3ccccc3c2=O)c1 [Compound 306, N-[2-(3-ethoxyphenyl)phenyl]-4-oxo-1H-quinoline-3-carboxamide]
> 5.00	++ (between 25% to 100%)	O=C(Nc1ccccc1-c1cccc(Cl)c1)c1c[nH]c2ccccc2c1=O [Compound 307, N-[2-(3-chlorophenyl)phenyl]-4-oxo-1H-quinoline-3-carboxamide]
4.22 to 4.60	+ (<25%)	O=C(Nc1cc2ccccc2cn1)c1c[nH]c2ccccc2c1=O [Compound 309, N-(3-isoquinolyl)-4-oxo-1H-quinoline-3-carboxamide]
> 5.00	++ (between 25% to 100%)	CCC(C)c1ccc(NC(=O)c2c[nH]c3ccccc3c2=O)cc1 (centres unmarked) [Compound 310, 4-oxo-N-(4-sec-butylphenyl)-1H-quinoline-3-carboxamide]
> 5.00	++ (between 25% to 100%)	Cc1ccc(-c2ccccc2NC(=O)c2c[nH]c3ccccc3c2=O)o1 [Compound 311, N-[2-(5-methyl-2-furyl)phenyl]-4-oxo-1H-quinoline-3-carboxamide]
> 5.00	++ (between 25% to 100%)	COc1ccc(-c2ccccc2NC(=O)c2c[nH]c3ccccc3c2=O)c(OC)c1 [Compound 312, N-[2-(2,4-dimethoxyphenyl)phenyl]-4-oxo-1H-quinoline-3-carboxamide]
> 5.00	++ (between 25% to 100%)	O=C(Nc1ccccc1-c1ccccc1F)c1c[nH]c2ccccc2c1=O [Compound 313, N-[2-(2-fluorophenyl)phenyl]-4-oxo-1H-quinoline-3-carboxamide]
–	++ (between 25% to 100%)	CCc1cccc(C(C)C)c1NC(=O)c1c[nH]c2ccccc2c1=O [Compound 314, N-(2-ethyl-6-isopropyl-phenyl)-4-oxo-1H-quinoline-3-carboxamide]
> 5.00	++ (between 25% to 100%)	Cc1cccc(C)c1NC(=O)c1c[nH]c2ccccc2c1=O [Compound 315, N-(2,6-dimethylphenyl)-4-oxo-1H-quinoline-3-carboxamide]
4.60 to 5.00	++ (between 25% to 100%)	CC(=O)Nc1ccc(C(C)(C)C)c(NC(=O)c2c[nH]c3ccccc3c2=O)c1 [Compound 316, N-(5-acetylamino-2-tert-butyl-phenyl)-4-oxo-1H-quinoline-3-carboxamide]
> 5.00	++ (between 25% to 100%)	O=C(Nc1c(Cl)cccc1Cl)c1c[nH]c2ccccc2c1=O [Compound 317, N-(2,6-dichlorophenyl)-4-oxo-1H-quinoline-3-carboxamide]
4.60 to 5.00	++ (between 25% to 100%)	O=C(Nc1cc(NS(=O)(=O)CCN2CCCCC2)cc(C(F)(F)F)c1)c1c[nH]c2ccccc2c1=O [Compound 318, 4-Oxo-N-[3-[2-(1-piperidyl)ethylsulfonylamino]-5-(trifluoromethyl)phenyl]-1H-quinoline-3-carboxamide]
> 5.00	++ (between 25% to 100%)	CC(C)(C)c1cc(F)c(NC(=O)c2c[nH]c3ccc(F)cc3c2=O)cc1O [Compound 319, 6-fluoro-N-(2-fluoro-5-hydroxy-4-tert-butyl-phenyl)-4-oxo-1H-quinoline-3-carboxamide]

SMILES	pEC50	% Activity
O=C(Nc1ccc2cn[nH]c2c1)c1c[nH]c2ccccc2c1=O [Compound 284, N-(1H-indazol-6-yl)-4-oxo-1H-quinoline-3-carboxamide]	4.60 to 5.00	++ (between 25% to 100%)
N#CCc1ccccc1NC(=O)c1c[nH]c2ccccc2c1=O [Compound 308, N-[2-(cyanomethyl)phenyl]-4-oxo-1H-quinoline-3-carboxamide]	4.60 to 5.00	++ (between 25% to 100%)
